Two compounds from publication PMC12520410, “A FtsZ inhibitor-acinetobactin conjugate with enhanced cellular uptake in Acinetobacter baumannii acts synergistically in combination with PBP3-targeting antibiotics” (PLOS One, 2025) can be followed below.

Each structure is given as a SMILES string.

Holding throughout (type): binding
Test [1] deals with T1, AbFtsZ (A. baumannii FtsZ) (Acinetobacter baumannii, UniProt V5V8B6). As to the kind of experiment: fluorescence anisotropy titration of RUP2 with purified AbFtsZ. On the technique in general: Polarisation of emitted light reports the rotation of a fluorescent probe.
In test [2] the target is T1, AbFtsZ (A. baumannii FtsZ). In words: fluorescence anisotropy titration; also inhibits GTP-dependent polymerization (light scattering).
Test [3] addresses BauA (Acinetobacter baumannii, UniProt Q76HJ9). As to the kind of experiment: fluorescence anisotropy titration of the RUP7_2-Fe3+ complex with purified BauA.

As a reminder, the Kd is the equilibrium constant for the complex coming apart. Read a high Kd as lower affinity.

T1 sequence (V5V8B6 entry or part of it): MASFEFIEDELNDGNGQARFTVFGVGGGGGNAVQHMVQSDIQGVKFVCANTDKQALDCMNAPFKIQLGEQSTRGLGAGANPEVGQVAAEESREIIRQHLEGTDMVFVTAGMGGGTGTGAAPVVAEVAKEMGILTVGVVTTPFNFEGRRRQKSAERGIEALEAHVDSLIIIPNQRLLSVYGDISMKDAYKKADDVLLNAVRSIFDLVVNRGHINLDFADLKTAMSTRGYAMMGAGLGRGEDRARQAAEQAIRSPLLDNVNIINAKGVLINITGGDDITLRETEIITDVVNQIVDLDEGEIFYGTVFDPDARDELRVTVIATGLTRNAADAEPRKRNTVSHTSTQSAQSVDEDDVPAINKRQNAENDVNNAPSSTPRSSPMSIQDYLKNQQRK
Chain of BauA (Q76HJ9 entry or part of it): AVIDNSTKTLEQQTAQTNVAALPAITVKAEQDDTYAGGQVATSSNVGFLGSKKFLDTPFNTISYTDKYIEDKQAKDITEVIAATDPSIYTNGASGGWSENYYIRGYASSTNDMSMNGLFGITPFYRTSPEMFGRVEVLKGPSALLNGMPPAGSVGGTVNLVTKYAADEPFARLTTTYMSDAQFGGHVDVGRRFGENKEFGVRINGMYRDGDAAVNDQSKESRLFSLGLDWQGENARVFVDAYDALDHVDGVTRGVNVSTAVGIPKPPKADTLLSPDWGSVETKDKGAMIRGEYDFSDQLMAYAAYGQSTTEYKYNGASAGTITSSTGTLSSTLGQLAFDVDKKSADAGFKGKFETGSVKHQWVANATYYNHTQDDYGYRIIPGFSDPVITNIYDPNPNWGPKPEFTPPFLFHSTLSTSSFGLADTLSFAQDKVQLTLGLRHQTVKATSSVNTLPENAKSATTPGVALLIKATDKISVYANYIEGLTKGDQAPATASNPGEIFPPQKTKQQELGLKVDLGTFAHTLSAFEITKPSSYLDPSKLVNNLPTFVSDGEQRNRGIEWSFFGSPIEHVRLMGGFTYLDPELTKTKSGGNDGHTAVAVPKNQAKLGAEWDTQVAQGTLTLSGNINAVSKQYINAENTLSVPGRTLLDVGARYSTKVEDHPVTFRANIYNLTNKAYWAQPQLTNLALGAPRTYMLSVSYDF

Consider `NC(=O)c1c(F)ccc(OC(CCO)c2nc(-c3ccc(C(F)(F)F)cc3)c(Br)o2)c1F` (stereo not drawn) [RUP2], for which binding in test [1] was characterised by a dissociation constant (Kd) of 230 ± 90 nM.
Take `C[C@@H]1ON(CCc2cn(CCC(Oc3ccc(F)c(C(N)=O)c3F)c3nc(-c4ccc(C(F)(F)F)cc4)c(Br)o3)cn2)C(=O)[C@H]1NC(=O)c1cccc(O)c1O` (stereo partly drawn) [RUP7]: the Kd in test [2] came out at 26500 ± 3700 nM; in test [3], 1800 ± 400 nM.
